Assay: mn = molality of the nth substance listed, in mol/kg
Settings: for surface tension liquid-gas: Ring tensiometer; for electrical conductivity: 100 kPa, Liquid, Alternating current cell with electrodes

CCCCCCCCCCCCCCCC[NH+](CCO)CC(C)O.[Cl-] (configuration not stated) + O
Settings	electrical conductivity [S/m]	surface tension liquid-gas [mN/m]
293.15 K, m1 = 1.052e-05	–	59.82
293.15 K, m1 = 1.579e-05	–	56.69
293.15 K, m1 = 2.631e-05	–	52.01
293.15 K, m1 = 5.263e-05	–	45.56
293.15 K, m1 = 0.0001052	–	39.23
293.15 K, m1 = 0.0001263	0.000446	–
293.15 K, m1 = 0.0001316	0.000471	–
293.15 K, m1 = 0.0001368	0.000496	–
293.15 K, m1 = 0.0001421	0.000522	–
293.15 K, m1 = 0.0001473	0.000548	–
293.15 K, m1 = 0.0001526	0.000573	–
293.15 K, m1 = 0.0001579	0.000595	35.88
293.15 K, m1 = 0.000171	0.00061	–
293.15 K, m1 = 0.0001842	0.000621	–
293.15 K, m1 = 0.0001973	0.000633	–
293.15 K, m1 = 0.0002105	0.000644	34.88
293.15 K, m1 = 0.0002236	0.000655	–
293.15 K, m1 = 0.0002368	0.000667	–
293.15 K, m1 = 0.00025	0.000678	–
293.15 K, m1 = 0.0002631	0.000689	34.06
293.15 K, m1 = 0.0002763	0.000701	–
293.15 K, m1 = 0.0002894	0.000712	–
293.15 K, m1 = 0.0003026	0.000723	–
293.15 K, m1 = 0.0003157	0.000737	–
293.15 K, m1 = 0.0005262	–	32.43
293.15 K, m1 = 0.001053	–	31.43
293.15 K, m1 = 0.001579	–	31.07
298.15 K, m1 = 7.893e-06	–	56.32
298.15 K, m1 = 1.052e-05	–	54.11
298.15 K, m1 = 1.579e-05	–	50.72
298.15 K, m1 = 2.631e-05	–	46.33
298.15 K, m1 = 5.263e-05	–	40.82
298.15 K, m1 = 9.47e-05	0.000409	–
298.15 K, m1 = 0.0001016	0.000433	–
298.15 K, m1 = 0.0001052	–	35.11
298.15 K, m1 = 0.0001085	0.000458	–
298.15 K, m1 = 0.0001154	0.000482	–
298.15 K, m1 = 0.0001223	0.000507	–
298.15 K, m1 = 0.0001293	0.000531	–
298.15 K, m1 = 0.0001362	0.000556	–
298.15 K, m1 = 0.0001431	0.000581	–
298.15 K, m1 = 0.00015	0.000606	32.52
298.15 K, m1 = 0.0001618	0.000621	–
298.15 K, m1 = 0.0001737	0.000637	–
298.15 K, m1 = 0.0001855	0.000653	–
298.15 K, m1 = 0.0001973	0.000669	–
298.15 K, m1 = 0.0002092	0.000684	–
298.15 K, m1 = 0.0002105	–	31.91
298.15 K, m1 = 0.000221	0.0007	–
298.15 K, m1 = 0.0002329	0.000716	–
298.15 K, m1 = 0.0002447	0.000732	–
298.15 K, m1 = 0.0002565	0.000748	–
298.15 K, m1 = 0.0002631	–	31.41
298.15 K, m1 = 0.0002684	0.000764	–
298.15 K, m1 = 0.0002802	0.00078	–
298.15 K, m1 = 0.0002921	0.000796	–
298.15 K, m1 = 0.0003039	0.000811	–
298.15 K, m1 = 0.0003157	0.000829	–
298.15 K, m1 = 0.0005262	–	30.8
298.15 K, m1 = 0.001053	–	30.03
298.15 K, m1 = 0.001579	–	29.71
303.15 K, m1 = 6.578e-06	–	52.23
303.15 K, m1 = 7.893e-06	–	50.81
303.15 K, m1 = 1.052e-05	–	48.55
303.15 K, m1 = 1.579e-05	–	45.89
303.15 K, m1 = 2.631e-05	–	42.23
303.15 K, m1 = 5.263e-05	–	37.06
303.15 K, m1 = 9.47e-05	0.000467	–
303.15 K, m1 = 9.9e-05	0.000486	–
303.15 K, m1 = 0.0001033	0.000505	–
303.15 K, m1 = 0.0001052	–	32.07
303.15 K, m1 = 0.0001075	0.000524	–
303.15 K, m1 = 0.0001118	0.000544	–
303.15 K, m1 = 0.0001161	0.000563	–
303.15 K, m1 = 0.0001204	0.000582	–
303.15 K, m1 = 0.0001247	0.000601	–
303.15 K, m1 = 0.0001289	0.000621	–
303.15 K, m1 = 0.0001315	–	31.01
303.15 K, m1 = 0.0001423	0.000643	–
303.15 K, m1 = 0.0001556	0.000666	–
303.15 K, m1 = 0.0001579	–	30.51
303.15 K, m1 = 0.000169	0.000689	–
303.15 K, m1 = 0.0001823	0.000712	–
303.15 K, m1 = 0.0001956	0.000735	–
303.15 K, m1 = 0.000209	0.000757	–
303.15 K, m1 = 0.0002105	–	30.45
303.15 K, m1 = 0.0002223	0.00078	–
303.15 K, m1 = 0.0002357	0.000803	–
303.15 K, m1 = 0.000249	0.000826	–
303.15 K, m1 = 0.0002624	0.000849	–
303.15 K, m1 = 0.0002631	–	30.43
303.15 K, m1 = 0.0002757	0.000872	–
303.15 K, m1 = 0.0002891	0.000895	–
303.15 K, m1 = 0.0003024	0.000918	–
303.15 K, m1 = 0.0003157	0.000944	–
303.15 K, m1 = 0.0005262	–	29.89
303.15 K, m1 = 0.001053	–	29.16
303.15 K, m1 = 0.001579	–	28.81
308.15 K, m1 = 4.604e-06	–	52.01
308.15 K, m1 = 7.893e-06	–	48.13
308.15 K, m1 = 1.052e-05	–	46
308.15 K, m1 = 1.579e-05	–	43.23
308.15 K, m1 = 2.631e-05	–	39.78
308.15 K, m1 = 5.263e-05	–	35.06
308.15 K, m1 = 7.37e-05	0.000445	–
308.15 K, m1 = 8.04e-05	0.000472	–
308.15 K, m1 = 8.72e-05	0.0005	–
308.15 K, m1 = 9.4e-05	0.000528	–
308.15 K, m1 = 0.0001007	0.000556	–
308.15 K, m1 = 0.0001075	0.000583	–
308.15 K, m1 = 0.0001143	0.000611	–
308.15 K, m1 = 0.000121	0.00064	29.71
308.15 K, m1 = 0.00013	0.000659	–
308.15 K, m1 = 0.0001389	0.000679	–
308.15 K, m1 = 0.0001479	0.000699	–
308.15 K, m1 = 0.0001568	0.000719	–
308.15 K, m1 = 0.0001579	–	29.44
308.15 K, m1 = 0.0001658	0.000739	–
308.15 K, m1 = 0.0001747	0.000759	–
308.15 K, m1 = 0.0001837	0.000778	–
308.15 K, m1 = 0.0001926	0.000798	–
308.15 K, m1 = 0.0002015	0.000818	–
308.15 K, m1 = 0.0002105	0.000839	29.16
308.15 K, m1 = 0.0002194	0.000858	–
308.15 K, m1 = 0.0002284	0.000878	–
308.15 K, m1 = 0.0002373	0.000898	–
308.15 K, m1 = 0.0002463	0.000917	–
308.15 K, m1 = 0.0002552	0.000937	–
308.15 K, m1 = 0.0002631	–	29.02
308.15 K, m1 = 0.0002642	0.000957	–
308.15 K, m1 = 0.0002731	0.000977	–
308.15 K, m1 = 0.0002821	0.000997	–
308.15 K, m1 = 0.000291	0.00102	–
308.15 K, m1 = 0.0005262	–	28.71
308.15 K, m1 = 0.001053	–	28.26
308.15 K, m1 = 0.001579	–	28.07

— the NIST ThermoML archive (doi:10.1021/acs.jced.7b00347)
